According to ChEMBL document CHEMBL1240392 (Antimicrob Agents Chemother, 2010):
Values after ≈ are worked out from the molar mass of the structure shown. Active and inactive are the calls of the source. No cut-off for these calls is given here.

Key:
[1] = Ratio of AUC to MIC for Acinetobacter baumannii 1327 in pharmacokinetic-pharmacodynamic C57BL/6 mouse pneumonia model at 60 mg/kg, im; type: functional; details: route intramuscular
Acinetobacter baumannii [2] = test: Antimicrobial activity against Acinetobacter baumannii 940 after 24 hrs by time-kill assay; type: functional, organism-based
Acinetobacter baumannii [3] = test: Antimicrobial activity against Acinetobacter baumannii 940; type: functional
[4] = AUC in C57BL/6 mouse pneumonia model at 60 mg/kg, im; type: ADME, organism-based; set-up: dose 60 mg/kg, route intramuscular; details: in vivo
[5] = AUC in New Zealand rabbit meningitis model at 30 mg/kg, im; type: ADME, organism-based, Oryctolagus cuniculus; set-up: dose 30 mg/kg, route intramuscular; details: in vivo
Acinetobacter baumannii [6] = test: Antimicrobial activity against Acinetobacter baumannii 506; type: functional
Acinetobacter baumannii [7] = test: Antimicrobial activity against Acinetobacter baumannii 506 after 24 hrs by time-kill assay; type: functional, organism-based
Acinetobacter baumannii [8] = test: Antimicrobial activity against Acinetobacter baumannii 1327; type: functional
[9] = Ratio of Cmax to MIC for Acinetobacter baumannii 1327 in pharmacokinetic-pharmacodynamic New Zealand rabbit meningitis model at 30 mg/kg, im; type: functional; details: route intramuscular
[10] = Cmax in New Zealand rabbit meningitis model at 30 mg/kg, im; type: ADME, organism-based, Oryctolagus cuniculus; set-up: dose 30 mg/kg, route intramuscular; details: in vivo
Acinetobacter baumannii [11] = test: Antimicrobial activity against Acinetobacter baumannii infected in C57BL/6 mouse model assessed as reduction in bacterial count per gram of lung at total dose of 240 mg/kg/day, im administered as four divided doses after 72 hrs (RVb = 10.6+/-0.27); type: functional, organism-based
[12] = Ratio of AUC to MIC for Acinetobacter baumannii 1327 in pharmacokinetic-pharmacodynamic New Zealand rabbit meningitis model at 30 mg/kg, im; type: functional; details: route intramuscular
Acinetobacter baumannii [13] = test: Antimicrobial activity against Acinetobacter baumannii 1417; type: functional
[14] = Ratio of Cmax to MIC for Acinetobacter baumannii 1327 in pharmacokinetic-pharmacodynamic C57BL/6 mouse pneumonia model at 60 mg/kg, im; type: functional; details: route intramuscular
[15] = Half life in C57BL/6 mouse pneumonia model at 60 mg/kg, im; type: ADME, organism-based; set-up: dose 60 mg/kg, route intramuscular; details: in vivo
[16] = T>MIC in Acinetobacter baumannii infected New Zealand rabbit meningitis model at 30 mg/kg, im; type: functional; details: route intramuscular
Acinetobacter baumannii [17] = test: Antibacterial activity against Acinetobacter baumannii infected in C57BL/6 mouse model assessed as survival rate at total dose of 240 mg/kg/day, im administered as four divided doses measured after 72 hrs post last dose relative to control; type: functional; details: route intramuscular
Acinetobacter baumannii [18] = test: Antimicrobial activity against Acinetobacter baumannii 1417 after 24 hrs by time-kill assay; type: functional, organism-based
[19] = Cmax in C57BL/6 mouse pneumonia model at 60 mg/kg, im; type: ADME, organism-based; set-up: dose 60 mg/kg, route intramuscular; details: in vivo
[20] = Half life in New Zealand rabbit meningitis model at 30 mg/kg, im; type: ADME, organism-based, Oryctolagus cuniculus; set-up: dose 30 mg/kg, route intramuscular; details: in vivo
[21] = T>MIC in Acinetobacter baumannii infected C57BL/6 mouse pneumonia model at 60 mg/kg, im; type: functional; details: route intramuscular
Acinetobacter baumannii [22] = test: Antimicrobial activity against Acinetobacter baumannii 1327 after 24 hrs by time-kill assay; type: functional, organism-based
Acinetobacter baumannii [23] = test: Antimicrobial activity against Acinetobacter baumannii infected in C57BL/6 mouse model assessed as reduction in bacterial count in blood at total dose of 240 mg/kg/day, im administered as four divided doses after 72 hrs; type: functional; set-up: scale not given: the % may be the effect or the level left; details: route intramuscular
Oryctolagus cuniculus [24] = test: AUC in New Zealand rabbit meningitis model at 12 mg/kg, im; type: ADME, organism-based; set-up: dose 12 mg/kg, route intramuscular; details: in vivo
Mus musculus [25] = test: AUC in C57BL/6 mouse pneumonia model at 20 mg/kg, im; type: ADME, organism-based; set-up: dose 20 mg/kg, route intramuscular; details: in vivo
Mus musculus [26] = test: Half life in C57BL/6 mouse pneumonia model at 20 mg/kg, im; type: ADME, organism-based; set-up: dose 20 mg/kg, route intramuscular; details: in vivo
Mus musculus [27] = test: Cmax in C57BL/6 mouse pneumonia model at 20 mg/kg, im; type: ADME, organism-based; set-up: dose 20 mg/kg, route intramuscular; details: in vivo
Oryctolagus cuniculus [28] = test: Half life in New Zealand rabbit meningitis model at 12 mg/kg, im; type: ADME, organism-based; set-up: dose 12 mg/kg, route intramuscular; details: in vivo
Homo sapiens = species: Homo sapiens; test: AUC in human; type: ADME, organism-based, Plasma; details: in vivo
Oryctolagus cuniculus [29] = test: Cmax in New Zealand rabbit meningitis model at 12 mg/kg, im; type: ADME, organism-based; set-up: dose 12 mg/kg, route intramuscular; details: in vivo
[30] = Ratio of Cmax to MIC for Acinetobacter baumannii 1327 in pharmacokinetic-pharmacodynamic New Zealand rabbit meningitis model at 12 mg/kg, im; type: functional, organism-based; set-up: dose 12 mg/kg
Oryctolagus cuniculus [31] = test: Antiinflammatory activity in Acinetobacter baumannii 1327-infected New Zealand rabbit meningitis model assessed as in WBC count at 12 mg/kg, im after 6 hrs (RVb = 1 cells/ul); type: functional, organism-based; set-up: dose 12 mg/kg
[32] = T>MIC in Acinetobacter baumannii infected C57BL/6 mouse pneumonia model at 20 mg/kg, im; type: functional, organism-based; set-up: dose 20 mg/kg
[33] = Ratio of Cmax to MIC for Acinetobacter baumannii 1327 in pharmacokinetic-pharmacodynamic C57BL/6 mouse pneumonia model at 20 mg/kg, im; type: functional, organism-based; set-up: dose 20 mg/kg
[34] = Ratio of AUC to MIC for Acinetobacter baumannii 1327 in pharmacokinetic-pharmacodynamic New Zealand rabbit meningitis model at 12 mg/kg, im; type: functional, organism-based; set-up: dose 12 mg/kg
Acinetobacter baumannii [35] = test: Antimicrobial activity against Acinetobacter baumannii; type: functional, organism-based
[36] = Ratio of AUC to MIC for Acinetobacter baumannii 1327 in pharmacokinetic-pharmacodynamic C57BL/6 mouse pneumonia model at 12 mg/kg, im; type: functional, organism-based; set-up: dose 12 mg/kg
Acinetobacter baumannii [37] = test: Antibacterial activity against Acinetobacter baumannii 1327 infected in New Zealand rabbit meningitis model assessed as reduction in bacterial count in CSF at 25 mg/kg, im measured after 6 hrs of last dose (RVb = 5.5); type: functional, organism-based; set-up: dose 25 mg/kg
Acinetobacter baumannii [38] = test: Antibacterial activity against Acinetobacter baumannii infected in C57BL/6 mouse model assessed as survival rate at total dose of 60 mg/kg/day, im administered as four divided doses measured after 72 hrs post last dose relative to control; type: functional, organism-based
Acinetobacter baumannii [39] = test: Antimicrobial activity against Acinetobacter baumannii infected in C57BL/6 mouse model assessed as reduction in bacterial count per gram of lung at total dose of 60 mg/kg/day, im administered as four divided doses after 72 hrs (RVb = 10.6+/-0.27); type: functional, organism-based
Oryctolagus cuniculus [40] = test: Antiinflammatory activity in Acinetobacter baumannii 1327-infected New Zealand rabbit meningitis model assessed as brain edema at 12 mg/kg, im; type: functional, organism-based; set-up: dose 12 mg/kg
Acinetobacter baumannii [41] = test: Antimicrobial activity against Acinetobacter baumannii infected in C57BL/6 mouse model assessed as reduction in bacterial count in blood at total dose of 60 mg/kg/day, im administered as four divided doses after 72 hrs; type: functional, organism-based; set-up: scale not given: the % may be the effect or the level left
[42] = T>MIC in Acinetobacter baumannii infected New Zealand rabbit meningitis model at 12 mg/kg, im; type: functional, organism-based; set-up: dose 12 mg/kg
Acinetobacter baumannii [43] = test: Antibacterial activity against Acinetobacter baumannii 1327 infected in New Zealand rabbit meningitis model assessed as reduction in bacterial count in CSF at 25 mg/kg, im measured after 2 hrs of last dose (RVb = […]); type: functional, organism-based; set-up: dose 25 mg/kg
Acinetobacter baumannii [44] = test: Antibacterial activity against Acinetobacter baumannii 1327 infected in New Zealand rabbit meningitis model assessed as reduction in bacterial count in CSF at 25 mg/kg, im measured after 4 hrs of last dose (RVb = 5.2); type: functional, organism-based; set-up: dose 25 mg/kg

In the case of `CC1(C)[C@H](C(=O)O)N2C(=O)C[C@H]2S1(=O)=O` [SULBACTAM], the Ratio [1] is reported as 2.73, the Activity (Acinetobacter baumannii [2]) is reported as “Active” and the MBC (Acinetobacter baumannii [3]) is reported as 32 µg/mL (≈ 137 µM). It also gave an MIC (Acinetobacter baumannii [3]) of 32 µg/mL (≈ 137 µM), an AUC [4] of 87500 ng·h/mL and an AUC [5] of 57100 ng·h/mL. The MBC (Acinetobacter baumannii [6]) was 32 µg/mL (≈ 137 µM), the MIC (Acinetobacter baumannii [6]) was 32 µg/mL (≈ 137 µM) and the Activity (Acinetobacter baumannii [7]) was “Active”. The MBC (Acinetobacter baumannii [8]) was 32 µg/mL (≈ 137 µM), the MIC (Acinetobacter baumannii [8]) was 32 µg/mL (≈ 137 µM) and the Ratio [9] was 2.35. For the same molecule, the Cmax [10] was 75.3 µg/mL, the Activity (Acinetobacter baumannii [11]) was “Active” and the Ratio [12] was 1.78. The MBC (Acinetobacter baumannii [13]) was 32 µg/mL (≈ 137 µM), the MIC (Acinetobacter baumannii [13]) was 32 µg/mL (≈ 137 µM) and the Ratio [14] was 2.8. The half-life [15] was 21 min, the “T>MIC” value [16] was 0.84 h and the survival at 240 mg/kg/day (Acinetobacter baumannii [17]) was 40%. The Activity (Acinetobacter baumannii [18]) was “Active”, the Cmax [19] was 89.5 µg/mL and the half-life [20] was 32.4 min. For the same molecule, the “T>MIC” value [21] was 1.29 h, the Activity (Acinetobacter baumannii [22]) was “Active” and the Activity (Acinetobacter baumannii [23]) was 33.3%.

Work on COLISTIN [listing 1 of 2 here] yielded an AUC (Oryctolagus cuniculus [24]) of 41720 ng·h/mL, an AUC (Mus musculus [25]) of 26420 ng·h/mL and a t1/2 (Mus musculus [26]) of 32.4 min. The Cmax (Mus musculus [27]) was 27.39 µg/mL, the t1/2 (Oryctolagus cuniculus [28]) was 185 min and the AUC (Homo sapiens) was 23430 ng·h/mL. The Cmax (Oryctolagus cuniculus [29]) was 9 µg/mL.

In the case of COLISTIN [listing 2 of 2 here], the Ratio [30] is reported as 18, the Activity (Oryctolagus cuniculus [31]) is reported as 4% and the Activity (Acinetobacter baumannii [2]) is reported as “Active”. For the same molecule, the T>MIC [32] was 3.72 h, the Ratio [33] was 54.8 and the Ratio [34] was 83.4. It also gave an MBC (Acinetobacter baumannii [3]) of 8 µg/mL, an MIC (Acinetobacter baumannii [3]) of 0.5 µg/mL and an MBC (Acinetobacter baumannii [6]) of 2 µg/mL. The MIC (Acinetobacter baumannii [6]) was 0.5 µg/mL, the Activity (Acinetobacter baumannii [7]) was “Active” and the MBC (Acinetobacter baumannii [8]) was 2 µg/mL. It also gave an MIC (Acinetobacter baumannii [8]) of 0.5 µg/mL, an MIC (Acinetobacter baumannii [35]) of 0.5 µg/mL and a Ratio [36] of 52.8. It also gave an Activity (Acinetobacter baumannii [37]) of 4.3 log10CFU/ml, a Survival (Acinetobacter baumannii [38]) of 40% and an MBC (Acinetobacter baumannii [13]) of 1 µg/mL. For the same molecule, the MIC (Acinetobacter baumannii [13]) was 0.5 µg/mL, the Activity (Acinetobacter baumannii [39]) was “Active” and the Activity (Oryctolagus cuniculus [40]) was 383 µL⁻¹. It also gave an Activity (Acinetobacter baumannii [41]) of 73.3%, a T>MIC [42] of 11.4 h and an Activity (Acinetobacter baumannii [43]) of 5.2 log10CFU/ml. The Activity (Acinetobacter baumannii [18]) was “Active”, the Activity (Acinetobacter baumannii [44]) was 4.7 log10CFU/ml and the Activity (Acinetobacter baumannii [22]) was “Active”.
